Earlier results, collected in patent publication US8450455B2, “cRGD peptide derivative and its manufacture, and implant having a coating containing a cRGD peptide derivative” (Biotronik AG, priority 2010, dated 2013).

Columns and labels:
[1] = target: integrin ανβ3 (Homo sapiens, UniProt P05106+P06756); settings: integrin expressed by tumor cells
[2] = 1-octanol/water, 25° C.

Sequence of integrin ανβ3 (P06756 31-889 limits assumed): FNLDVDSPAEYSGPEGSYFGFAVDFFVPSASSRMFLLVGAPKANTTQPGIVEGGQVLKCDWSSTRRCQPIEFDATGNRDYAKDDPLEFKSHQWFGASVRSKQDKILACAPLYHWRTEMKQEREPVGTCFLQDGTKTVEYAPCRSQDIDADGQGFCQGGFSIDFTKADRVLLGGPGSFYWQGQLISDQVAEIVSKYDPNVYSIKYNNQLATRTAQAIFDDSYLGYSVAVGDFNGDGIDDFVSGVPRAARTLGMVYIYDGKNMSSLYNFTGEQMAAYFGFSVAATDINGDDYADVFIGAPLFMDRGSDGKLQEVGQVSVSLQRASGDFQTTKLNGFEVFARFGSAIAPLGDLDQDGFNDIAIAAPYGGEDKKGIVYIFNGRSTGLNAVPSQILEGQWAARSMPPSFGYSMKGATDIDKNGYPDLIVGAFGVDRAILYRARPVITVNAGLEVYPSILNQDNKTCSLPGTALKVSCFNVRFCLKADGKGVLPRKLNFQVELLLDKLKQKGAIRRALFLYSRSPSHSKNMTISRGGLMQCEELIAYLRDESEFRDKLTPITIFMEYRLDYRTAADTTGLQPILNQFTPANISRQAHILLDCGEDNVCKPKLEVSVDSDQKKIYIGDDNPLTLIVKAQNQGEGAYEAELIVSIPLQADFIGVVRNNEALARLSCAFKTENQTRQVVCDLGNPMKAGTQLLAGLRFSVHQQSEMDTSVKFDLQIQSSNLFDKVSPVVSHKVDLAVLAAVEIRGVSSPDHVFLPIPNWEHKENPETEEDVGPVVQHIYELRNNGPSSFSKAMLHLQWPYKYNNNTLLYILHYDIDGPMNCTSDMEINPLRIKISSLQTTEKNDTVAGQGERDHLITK
Sequence of integrin ανβ3 (P06756 891-1048 partner limits assumed): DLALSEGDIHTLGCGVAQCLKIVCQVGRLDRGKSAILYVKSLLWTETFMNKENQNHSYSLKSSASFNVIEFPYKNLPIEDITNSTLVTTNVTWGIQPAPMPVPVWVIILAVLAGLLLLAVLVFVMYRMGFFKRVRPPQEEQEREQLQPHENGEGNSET
Sequence of integrin ανβ3 (P05106 27-788): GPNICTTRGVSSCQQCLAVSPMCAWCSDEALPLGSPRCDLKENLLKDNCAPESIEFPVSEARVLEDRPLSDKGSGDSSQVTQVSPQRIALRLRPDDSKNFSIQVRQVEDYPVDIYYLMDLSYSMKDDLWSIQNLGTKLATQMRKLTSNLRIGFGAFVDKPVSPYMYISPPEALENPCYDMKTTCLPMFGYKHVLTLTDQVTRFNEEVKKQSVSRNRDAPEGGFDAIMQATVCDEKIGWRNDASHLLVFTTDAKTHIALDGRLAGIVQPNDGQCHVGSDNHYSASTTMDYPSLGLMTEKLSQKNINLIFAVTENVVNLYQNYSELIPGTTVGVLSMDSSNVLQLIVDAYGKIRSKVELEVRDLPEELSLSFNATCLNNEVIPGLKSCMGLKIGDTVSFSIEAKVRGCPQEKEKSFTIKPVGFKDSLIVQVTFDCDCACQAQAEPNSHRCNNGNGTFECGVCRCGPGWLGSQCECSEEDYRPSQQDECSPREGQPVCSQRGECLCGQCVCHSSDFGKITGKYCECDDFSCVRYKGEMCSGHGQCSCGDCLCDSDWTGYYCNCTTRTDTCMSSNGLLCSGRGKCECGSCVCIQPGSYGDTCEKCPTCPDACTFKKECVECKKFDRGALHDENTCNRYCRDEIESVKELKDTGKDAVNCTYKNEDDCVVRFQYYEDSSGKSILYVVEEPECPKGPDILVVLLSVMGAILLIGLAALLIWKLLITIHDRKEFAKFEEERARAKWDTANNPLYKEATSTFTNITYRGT

inhibition of integrin ανβ3 [1] | logP [2] | Molecule
well-inhibited |  | c(RGDfV)
 | 2.57 | CCCCCCCN [1-aminoheptane]
